“Also recorded” adds a separate entry of the source. A value given as a limit tells only on which side of the number the result lay.

For data set [1], the system named is BxPC-3 cells. In words: Real-time cell analysis (Incucyte) of proliferation. The class given is cell-based, human. The following applies: Homo sapiens, 72 h, read-out: cellular IC50. The method, then:
(§1) Real-time cell analysis (RTCA) was conducted using an Incucyte S3 live-cell analysis system (Sartorius AG, Germany). […] Following attachment overnight, the medium was replaced with fresh medium containing test compounds, with all conditions adjusted to contain 0.5% DMSO. […] Phase-contrast images (2 images per well) were automatically captured at 2-h intervals until control wells (DMSO-treated) reached full confluency. Cell growth was quantified using the instrument’s integrated Basic Analyser module by applying a confluence mask to calculate the percentage of phase area confluence. […] Dose-response curves were generated and fitted via four-parameter variable slope nonlinear regression to determine cellular IC₅₀ values.

Data set [2] concerns MIA PaCa-2 cells. Described as above. The format is cell-based, human. The method, then:
as §1

The subject of data set [3] is NCI-H358 cells. The description is as above. The format is cell-based, human. The following applies: Homo sapiens, NCI-H358, 72 h, NCI-H358; 72 h; read-out: cellular IC50. As for the experimental part:
as §1

In data set [4] the test system is PA-TU-8902 cells. The data set is described as above. The class given is cell-based, human. The method, then:
as §1

In data set [5] the test system is SW480 cells. Described as above. The conditions noted are these: Homo sapiens, 72 h, read-out: cellular IC50. The format is cell-based, human. As for the experimental part: as §1
For data set [6], the system named is panel of human cell lines. In words: Cytotoxicity screening in a panel of human cell lines. The format is cell-based. The conditions noted are these: concentrations up to 25 µM. The method, then: Real-time cell analysis (RTCA) was conducted using an Incucyte S3 live-cell analysis system (Sartorius AG, Germany). Adherent cell lines were seeded at 5 × 10³ cells per well in 96-well plates containing 100 µl of culture medium and incubated overnight at 37 °C with 5% CO₂. Following attachment overnight, the medium was replaced with fresh medium containing test compounds, with all conditions adjusted to contain 0.5% DMSO. […] Phase-contrast images (2 images per well) were automatically captured at 2-h intervals until control wells (DMSO-treated) reached full confluency. Cell growth was quantified using the instrument’s integrated Basic Analyser module by applying a confluence mask to calculate the percentage of phase area confluence. For dose-response assessment, confluence values at 72 h post-treatment were normalised to the DMSO control and analysed using GraphPad Prism 9.5.1 (GraphPad Software, USA). Dose-response curves were generated and fitted via four-parameter variable slope nonlinear regression to determine cellular IC₅₀ values.
representative of biological replicates n = 3.
comet images for each condition were shown.
time live-cell imaging by Incucyte.
Source data are provided as […]

Data set [7] can be described thus: Mouse plasma stability. The conditions noted are these: 50% mouse plasma in PBS, within an hour. The format is in vitro ADME. From the text: plotted as mean ± standard deviation, representative of 3 technical replicates ( N = 3). Unpaired, two-
Data were plotted as mean ± standard deviation, representative of 3 technical replicates in the presence

In data set [8] the target is PDEδ in Jurkat cell lysates (Homo sapiens, UniProt O43924). In words: In-lysate CETSA (immunoblot readout). The class given is binding. Further details: host or cells: Jurkat.
Data set [9] concerns DNA in Jurkat cells. Kind of data set: Comet assay (DNA alkylation). The conditions noted are these: 10 µM.
In data set [10] the test system is mTORC1 substrate S6P in PA-TU-8902 cells. The conditions noted are these: 10 µM.
The target of data set [11] is T1, PDEδ (Homo sapiens, UniProt O43924). In words: Competitive fluorescence polarisation assay (FA probe displacement). The format is binding. Set-up: His tag; made in house; host or cells: Escherichia coli Rosetta (BL21DE3), pET plasmids. On the technique in general: In fluorescence polarisation assays a small probe gives low polarisation when free and higher when bound to something large.

Data set [12] concerns the target T1, PDEδ. Kind of data set: Differential scanning fluorimetry (NanoDSF). Further details: His tag; made in house; host or cells: Escherichia coli Rosetta (BL21DE3), pET plasmids. The class given is binding. The method, then: Afterwards, a sample of the solution was cooled down to room temperature and was loaded onto a capillary, followed by the measurement of fluorescence intensities at 350 nm and 330 nm from 20 °C up to 90 °C (with a rate of increment of 1 °C/min) using the Prometheus Panta device (NanoTemper® Technologies, DE).
(In general: Differential scanning fluorimetry follows unfolding on heating by fluorescence.)

For data set [13], the target named is T1, PDEδ. In words: Mass spectrometry analysis of PDEδ adducts after Glu-C digestion. The format is binding. Set-up: His tag; made in house; host or cells: Escherichia coli Rosetta (BL21DE3), pET plasmids. The following applies: LC-MS/MS, 10:1 compound to protein. The method, then:
For each replicate, 1.5 µg covalent adduct of PDEδ sample in PBS buffer was denatured, reduced, alkylated and digested by Glu-C and desalted, together with a negative control of unbound vehicle-treated PDEδ sample prior to mass spectrometry analysis. […] The final mixture containing 6.5 M guanidine hydrochloride was heated at 95 °C for 15 min. Subsequently, after cooling, 0.5 µl of a 50 mM dithiothreitol (DTT, cas 3483-12-3, Gerbu Biotechnik, #1008-100 g) solution was added. […] . Samples were incubated at 37 °C overnight with shaking at 400 rpm, protected from light. […] Desalting was carried out with stage tips with C18 extraction discs (Empore^TM high performance extraction discs, 47 mm, 3 M Bioanalytical Technologies #2215). Each stage tip, which consists of two stacked layers of C18 discs, was activated with methanol (100 µl), washed once with buffer B (100 µl, 0.1% formic acid, 80% acetonitrile), and twice with buffer A (100 µl/time, 0.1% formic acid). After sample loading and washing with buffer A once, the desalted sample was eluted with buffer B (20 µl/sample) and centrifuged at 500×g at room temperature for 5 min. Eluted samples were then dried in a SpeedVac at 30 °C.
Data evaluation was performed using MaxQuant software (v.2.2.0.0)[52]. […] Cleavages by Glu-C were analysed based on the enzyme that was used for digestion. […]

Take `Cc1ccc(-n2nc3c(=O)n(CCCCS(=O)(=O)N(CCc4cccc(CCBr)c4)CC4CCNCC4)nc(C)c3c2C)cc1` [6a]: the IC50 was determined as 20 ± 1.3 µM in data set [1]; 7 ± 0.4 µM in data set [2] (Homo sapiens, MIA PaCa-2, 72 h, read-out: cellular IC50); 6.3 ± 3.5 µM in data set [3]; 6.8 ± 0.5 µM in [4] (Homo sapiens, PaTu 8902, PA-TU-8902, 72 h, read-out: cellular IC50); 18.6 ± 3 µM in [5]; 0.0065 ± 0.0035 µM in [11] (37 °C overnight). The IC50 in [11] (PDEδ 40 nM, FA probe 24 nM, room temperature overnight) stood at 0.0152 ± 0.0086 µM. Besides, the “% Growth rate of MIA PaCa-2 cells” value in data set [2] (25 µM) and in data set [2] (50 µM) was 15% each time. Moreover, the “difference in cellular potency vs Deltazinone 1” value in data set [2] (MIA PaCa-2) is given as above 7 fold. Further, the “% Growth rate of PA-TU-8902 cells” value in [4] (25 µM) was determined as 16%; in [4] (50 µM), 26%. The general cytotoxicity entry in data set [6] is given as “no general toxicity; also recorded: not observed”. Further, in data set [7], the “stability in mouse plasma” value is recorded as “stable in mouse plasma”. Further, the ΔTm at 10 µM in [8] (15 min at 37 °C) amounted to 11.8 ± 0.2 °C; in [8] (2 h at 37 °C), 22.1 ± 1 °C. In addition, the “off-target effects such as DNA alkylation (Comet assay)” value in data set [9] is listed as “not observed”. The S6P phosphorylation entry in [10] is “reduced S6P phosphorylation in a time-dependent manner”. In data set [12] (2 h incubation), the “ΔTm (NanoDSF)” value came out at 13.5 ± 0.2 °C. The ΔTm at 60 µM in data set [12] (PDEδ 20 µM, compound 60 µM, mean ± s.d., Fig. 2e, read-out: melting temperature shift ΔTm (NanoDSF)) came to 15.5 ± 1 °C. The “site of covalent modification in PDEδ” value in data set [13] was “either at p.E88 or p.E89”.

One may read the IC50 as the concentration that inhibits the measured activity by half.

These data come from publication PMC12864978, “Covalent modification of a glutamic acid inspired by HaloTag technology” (Nature Communications, 2026).
